What was measured:
ULK1 kinase = molecular target: T1, ULK1 kinase (Homo sapiens, UniProt O75385, E37A/K38A); assay: Biochemical assay for ULK1 (coupled pyruvate kinase/lactate dehydrogenase assay); conditions: 1 mM ATP, 0.1 nM ULK1; read-out: ULK1 (inhibition of biochemical activity), IC50
T1 construct: (residues 1-283; ID NO: 1); purchased Beryllium
T1 sequence (O75385 1-283 E37A/K38A): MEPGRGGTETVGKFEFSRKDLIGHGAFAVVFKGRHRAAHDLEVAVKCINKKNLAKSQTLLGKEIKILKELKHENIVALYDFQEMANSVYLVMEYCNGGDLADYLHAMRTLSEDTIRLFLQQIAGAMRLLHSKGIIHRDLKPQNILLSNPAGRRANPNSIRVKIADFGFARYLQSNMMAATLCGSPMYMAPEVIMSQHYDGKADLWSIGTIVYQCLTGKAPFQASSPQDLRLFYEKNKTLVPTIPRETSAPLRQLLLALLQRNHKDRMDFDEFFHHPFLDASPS
Summary of the method: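 IC50 values were fitted to percent inhibition, normalised with no-compound and known-inhibitor controls, using rates from 2–3 h of a 6 h read at 30 °C. ADP was coupled through pyruvate kinase/lactate dehydrogenase to NADH loss at 340 nm.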

ULK2 kinase = molecular target: T2, ULK2 kinase (Homo sapiens, UniProt Q8IYT8); assay: Biochemical assay for ULK2 (coupled pyruvate kinase/lactate dehydrogenase assay); conditions: 1 mM ATP, 1 nM ULK2; read-out: ULK2 (inhibition of biochemical activity), IC50
T2 construct: (residues 1-306 with N-terminal GST and His tag; ID NO: 2); purchased Signal Chem U02-11G
Summary of the method: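 Continuous PK/LDH-coupled NADH oxidation assay (A340) with 1 nM ULK2, 200 μM ULKtide and 1 mM ATP in Tris pH 7.5, 15 mM MgCl2, 1% DMSO, read 6 h at 30° C. Rates from the 2-3 h window converted to percent inhibition against no-compound and known-inhibitor controls; IC50 by four-parameter sigmoidal fit.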

T2 sequence (Q8IYT8 with tags, fused parts or gaps): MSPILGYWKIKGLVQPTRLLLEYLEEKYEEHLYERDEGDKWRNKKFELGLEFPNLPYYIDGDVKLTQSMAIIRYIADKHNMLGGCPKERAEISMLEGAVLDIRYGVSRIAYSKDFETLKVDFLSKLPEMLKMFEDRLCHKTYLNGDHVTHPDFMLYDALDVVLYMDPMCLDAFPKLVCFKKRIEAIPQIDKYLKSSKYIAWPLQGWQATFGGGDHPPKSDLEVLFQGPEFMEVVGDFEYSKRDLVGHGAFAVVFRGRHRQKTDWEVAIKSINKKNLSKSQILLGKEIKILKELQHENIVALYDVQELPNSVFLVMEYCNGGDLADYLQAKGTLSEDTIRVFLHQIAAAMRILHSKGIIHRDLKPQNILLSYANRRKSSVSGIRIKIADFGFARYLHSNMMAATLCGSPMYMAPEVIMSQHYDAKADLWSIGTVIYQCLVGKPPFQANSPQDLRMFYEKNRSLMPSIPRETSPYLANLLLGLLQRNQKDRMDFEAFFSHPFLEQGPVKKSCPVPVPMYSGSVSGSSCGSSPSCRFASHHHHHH

IC50 (ULK1 kinase)	IC50 (ULK2 kinase)	SMILES
≤ 10 nM	10 to 100 nM	C/C(Nc1cnn(C(C)C)c1)=C1/C(=O)Nc2ccc(C(=O)NCC(F)(F)F)cc21 [Example 101]
10 to 100 nM	10 to 100 nM	CC/C(Nc1cnn(CCOC)c1)=C1/C(=O)Nc2ccc(C(=O)NCC(F)(F)F)cc21 [Example 102]
≤ 10 nM	10 to 100 nM	CC/C(Nc1cnn(CCN(C)C)c1)=C1/C(=O)Nc2ccc(C(=O)NCC(F)(F)F)cc21 [Example 103]
≤ 10 nM	10 to 100 nM	CC/C(Nc1cnn([C@H]2CCOC2)c1)=C1/C(=O)Nc2ccc(C(=O)NCC(F)(F)F)cc21 [Example 104]
≤ 10 nM	10 to 100 nM	CC/C(Nc1cnn([C@@H]2CCOC2)c1)=C1/C(=O)Nc2ccc(C(=O)NCC(F)(F)F)cc21 [Example 105]
≤ 10 nM	10 to 100 nM	CC/C(Nc1cnn(C2CCOCC2)c1)=C1/C(=O)Nc2ccc(C(=O)NCC(F)(F)F)cc21 [Example 106]
10 to 100 nM	10 to 100 nM	CC/C(Nc1cn[nH]c1)=C1/C(=O)Nc2ccc(C(=O)NCC(F)(F)F)cc21 [Example 108]
10 to 100 nM	10 to 100 nM	CC/C(Nc1cnn(C2CC2)c1)=C1/C(=O)Nc2ccc(C(=O)NCC(F)(F)F)cc21 [Example 116]
≤ 10 nM	10 to 100 nM	CC/C(Nc1cnn(C2COC2)c1)=C1/C(=O)Nc2ccc(C(=O)NCC(F)(F)F)cc21 [Example 118]
10 to 100 nM	10 to 100 nM	CC/C(Nc1cn(C(C)C)nn1)=C1/C(=O)Nc2ccc(C(=O)NCC(F)(F)F)cc21 [Example 122]
100 to 500 nM	> 500 nM	CC/C(Nc1cccnc1)=C1/C(=O)Nc2ccc(C(=O)NCC(F)(F)F)cc21 [Example 124]
10 to 100 nM	10 to 100 nM	CC/C(Nc1cnn(C(C)C)c1)=C1/C(=O)Nc2ccc(C(=O)N(C)CC(F)(F)F)cc21 [Example 125]
≤ 10 nM	10 to 100 nM	CC/C(Nc1cnn(C(C)C)c1)=C1/C(=O)Nc2ccc(C(=O)NCCOC(F)(F)F)cc21 [Example 136]
≤ 10 nM	10 to 100 nM	CC/C(Nc1cnn(C2CC(F)(F)C2)c1)=C1/C(=O)Nc2ccc(C(=O)NCC(F)(F)F)cc21 [Example 144]
10 to 100 nM	100 to 500 nM	CC/C(Nc1ccccn1)=C1/C(=O)Nc2ccc(C(=O)NCC(F)(F)F)cc21 [Example 145]
≤ 10 nM	≤ 10 nM	CC/C(Nc1cnn(CC)c1)=C1/C(=O)Nc2ccc(C(=O)NCC3(F)CC3)cc21 [Example 153]
≤ 10 nM	10 to 100 nM	CC/C(Nc1cnn(C)c1)=C1/C(=O)Nc2ccc(C(=O)NCC3(F)CC3)cc21 [Example 154]
10 to 100 nM	100 to 500 nM	CC/C(Nc1cnn(CC(C)OC)c1)=C1/C(=O)Nc2ccc(C(=O)NCC(F)(F)F)cc21 (stereo not drawn) [Example 157]
10 to 100 nM	100 to 500 nM	CC/C(Nc1cnn(CC(C)OC)c1)=C1/C(=O)Nc2ccc(C(=O)NCC(F)(F)F)cc21 (stereo not drawn) [Example 158]
10 to 100 nM	10 to 100 nM	CC/C(Nc1cnn(C(C)CC)c1)=C1/C(=O)Nc2ccc(C(=O)NCC(F)(F)F)cc21 (stereo not drawn) [Example 159]
≤ 10 nM	10 to 100 nM	CC/C(Nc1cnn(CC(F)(F)F)c1)=C1/C(=O)Nc2ccc(C(=O)NCC(C)(C)F)cc21 [Example 160]
≤ 10 nM	10 to 100 nM	CC/C(Nc1cnn(CC(F)F)c1)=C1/C(=O)Nc2ccc(C(=O)NCC(C)(C)F)cc21 [Example 161]
≤ 10 nM	≤ 10 nM	CC/C(Nc1cnn(C(C)C)c1)=C1/C(=O)Nc2ccc(C(=O)NCCC(F)(F)F)cc21 [Example 166]

More lines, now with the values behind:

SMILES	IC50 (ULK1 kinase)	IC50 (ULK2 kinase)
CC/C(Nc1cnn(C2CCN(C(C)C)CC2)c1)=C1/C(=O)Nc2ccc(C(=O)NCC3CCC(C4CC4)O3)cc21 (stereo not drawn) [Example 3, (Z)—N-((5-cyclopropyltetrahydrofuran-2-yl)methyl)-3-(1-((1-(1-isopropylpiperidin-4-yl)-1H-pyrazol-4-yl)amino)propylidene)-2-oxoindoline-5-carboxamide]	10 to 100 nM	100 to 500 nM
CC/C(Nc1cnn(C(C)C)c1)=C1/C(=O)Nc2ccc(C(=O)NCC3(C)COC3)cc21 [Example 5, (Z)-3-(1-((1-isopropyl-1H-pyrazol-4-yl)amino)propylidene)-N-((3-methyloxetan-3-yl)methyl)-2-oxoindoline-5-carboxamide]	10 to 100 nM	100 to 500 nM
CC/C(Nc1cnn(C2CCN(C(C)C)CC2)c1)=C1/C(=O)Nc2ccc(C(=O)NCC3CCO3)cc21 (stereo not drawn) [Example 21]	10 to 100 nM	10 to 100 nM
CC/C(Nc1cnn(C2CCN(C(C)C)CC2)c1)=C1/C(=O)Nc2ccc(C(=O)NCC(C)(C)OC)cc21 [Example 27]	10 to 100 nM	100 to 500 nM
CC/C(Nc1cnn(C2CCN(C(C)C)CC2)c1)=C1/C(=O)Nc2ccc(C(=O)NCC(C)(C)O)cc21 [Example 28]	10 to 100 nM	10 to 100 nM
CC/C(Nc1cnn(C2CCN(C(C)C)CC2)c1)=C1/C(=O)Nc2ccc(C(=O)NC3CC(F)(F)C3)cc21 [Example 29]	≤ 10 nM	10 to 100 nM
CC/C(Nc1cnn(C2CCN(C(C)C)CC2)c1)=C1/C(=O)Nc2ccc(C(=O)NCC3CC(F)(F)C3)cc21 [Example 30]	≤ 10 nM	≤ 10 nM
CC/C(Nc1cnn(C2CCN(C(C)C)CC2)c1)=C1/C(=O)Nc2ccc(C(=O)NCCC(F)(F)F)cc21 [Example 31]	≤ 10 nM	≤ 10 nM
CC/C(Nc1cnn(C2CCN(C3CCOCC3)CC2)c1)=C1/C(=O)Nc2ccc(C(=O)NCC(C)C)cc21 [Example 37]	≤ 10 nM	10 to 100 nM
CC/C(Nc1cnn(C2CCN(C(C)C)CC2)c1)=C1/C(=O)Nc2ccc(C(=O)NCC3CC3)cc21 [Example 42]	≤ 10 nM	10 to 100 nM
CC/C(Nc1cnn(C2CCN(C(C)C)CC2)c1)=C1/C(=O)Nc2ccc(C(=O)NCC3CCCC3)cc21 [Example 44]	≤ 10 nM	≤ 10 nM
CC/C(Nc1cnn(C2CCN(C)CC2)c1)=C1/C(=O)Nc2ccc(C(=O)NC[C@H]3CCCO3)cc21 [Example 51]	≤ 10 nM	10 to 100 nM
CC/C(Nc1cnn(C)c1)=C1/C(=O)Nc2ccc(C(=O)NC[C@H]3CCCO3)cc21 [Example 55]	10 to 100 nM	100 to 500 nM
CC/C(Nc1ccc(N2CC3(CN(C)C3)C2)cc1)=C1/C(=O)Nc2ccc(C(=O)NCC(F)(F)F)cc21 [Example 62]	≤ 10 nM	10 to 100 nM
CC/C(Nc1cnc(N2CCN(C(C)C)CC2)cn1)=C1/C(=O)Nc2ccc(C(=O)NCC(F)(F)F)cc21 [Example 94]	10 to 100 nM	10 to 100 nM
CC/C(Nc1cnn(C(C)C)c1)=C1/C(=O)Nc2ccc(C(=O)NC[C@H]3CCCO3)cc21 [Example 95]	≤ 10 nM	10 to 100 nM

SMILES	IC50 (ULK1 kinase)	IC50 (ULK2 kinase)
CC/C(Nc1ccc(N2CCN(C(C)C)CC2)cc1)=C1/C(=O)Nc2cc(F)c(C(=O)NCC(F)(F)F)cc21 [Example 100]	100 to 500 nM	100 to 500 nM
CC/C(Nc1cnn(C(C)C)c1)=C1/C(=O)Nc2ccc(C(=O)NCC(F)F)cc21 [Example 112]	10 to 100 nM	10 to 100 nM
CC/C(Nc1cnn(C(C)C)c1)=C1/C(=O)Nc2ccc(C(=O)N[C@H](C)C(F)(F)F)cc21 [Example 119]	≤ 10 nM	10 to 100 nM
CC/C(Nc1cnn(C(C)C)c1)=C1/C(=O)Nc2ccc(C(=O)NCCOC)cc21 [Example 126]	10 to 100 nM	100 to 500 nM
CC/C(Nc1cnn(C(C)C)c1)=C1/C(=O)Nc2ccc(C(=O)NCCC#N)cc21 [Example 127]	10 to 100 nM	10 to 100 nM
CC/C(Nc1cnn(C(C)C)c1)=C1/C(=O)Nc2ccc(C(=O)NC[C@@H](C)OC)cc21 [Example 128]	10 to 100 nM	100 to 500 nM
CC/C(Nc1cnn(C(C)C)c1)=C1/C(=O)Nc2ccc(C(=O)NCC3CC(F)(F)C3)cc21 [Example 134]	≤ 10 nM	10 to 100 nM
CC/C(Nc1cnn(C(C)C)c1)=C1/C(=O)Nc2ccc(C(=O)NCC3CCC(C)(C)O3)cc21 (stereo not drawn) [Example 137]	≤ 10 nM	10 to 100 nM
CC/C(Nc1cnn(C(C)C)c1)=C1/C(=O)Nc2ccc(C(=O)NCC3CCC4(CCC4)O3)cc21 (stereo not drawn) [Example 138]	10 to 100 nM	100 to 500 nM
CC/C(Nc1ccc2nn(C(C)C)cc2c1)=C1/C(=O)Nc2ccc(C(=O)NCC(F)(F)F)cc21 [Example 142]	10 to 100 nM	10 to 100 nM
CC/C(Nc1cnn(C(F)F)c1)=C1/C(=O)Nc2ccc(C(=O)NCC(C)C)cc21 [Example 147]	10 to 100 nM	100 to 500 nM
CC/C(Nc1cnn(C(C)C)c1)=C1/C(=O)Nc2ccc(C(=O)NCC(C)(C)OC)cc21 [Example 148]	10 to 100 nM	100 to 500 nM
CC/C(Nc1cc(C(F)(F)F)ccn1)=C1/C(=O)Nc2ccc(C(=O)NCC(F)(F)F)cc21 [Example 149]	10 to 100 nM	10 to 100 nM
CC/C(Nc1cnn(C(C)C)c1)=C1/C(=O)Nc2ccc(C(=O)NCC3(F)CC3)cc21 [Example 152]	≤ 10 nM	≤ 10 nM
CC/C(Nc1cnn(C(C)C)c1)=C1/C(=O)Nc2ccc(C(=O)NCC3(C#N)CC3)cc21 [Example 156]	≤ 10 nM	10 to 100 nM
